From patent US20240299591A1, “Antimicrobial Peptides and Their Use” (priority 2021, published 2024)
In brackets after ≈: the same amount, converted by molar mass. Where a SMILES comes first, the peptide text is derived from it. [ ]: non-standard residue; d: D form. The star is where a group is joined. X2 = O=C1OC2(c3ccc(O)cc3Oc3cc(O)ccc32)c2cccc(C(=O)*)c21

Tests used:
Assay type in all cases: cell-based
Aspergillus fumigatus = settings: 24 h
Method: The assays were performed using Nunc 262162 U96 polystyrene round bottomed clear plates (www.nuncbrand.com).
(§1) When testing the peptides against A. fumigatus, peptides at different concentrations were mixed with A. fumigatus conidia to reach a final volume of 100 μL per well. The final conidial concentration was 5×10^5 cells/mL in 10% Vogel's medium. After 24 h of incubation at 37° C. in 96 well plates, fungal growth with the different peptide concentrations was determined by measurement of the optical density at 610 nm in a TriStar LB 941 Multimode Microplate Reader. The IC50 values were determined using four parameter logistic regression formula provided by Sigma Plot 10.0. Values are represented as means±SEM from two independent experiments (n=3).
(§2) The IC50 of the fluorescently labelled peptides cannot be accurately determined using the optical density method described in the last section. This is because the fluorophore structures absorbed light at 610 nm which was the wavelength used for the optical density measurements. In order to overcome this, the BacTiter-Glo™ Microbial Cell Viability Assay kit purchased from Promega was used. The BacTiter-Glo™ Reagent relies on the properties of a proprietary thermostable luciferase (Ultra-Glo™ Recombinant Luciferase) and a proprietary formulation for extracting ATP from fungal cells which will generates a ‘glow-type’ luminescent signal. This is produced by the luciferase reaction shown in Scheme 1, which has a signal half-life of over 30 min depending on the experimental conditions. The luminescent signal is proportional to the amount of ATP present, which is directly proportional to the number of living cells in culture.
(§3) The IC50 assays for all fluorescently labelled peptides were performed using Greiner CELLSTAR white polystyrene wells flat bottomed 96 well plates. The incubation conditions remained the same for the optical density measurement described in the previous section. Once the incubation procedure was finished, the plate was equilibrated to room temperature. A mixture of BacTiter-Glo™ buffer and substrate was then added to the plate (100 μL per well). The plate was shaken for 5 min and read using the Tristar […] luminometer. Data analysis was performed using Sigma Plot 10.0. All values shown are presented as means±SEM from two independent experiments (n=3).

Fusarium oxysporum = settings: 24 h
Method: Dose dependent inhibition of fungal growth by all non-labelled peptides (indicated by IC50 values) was determined via this methodology. The assays were performed using Nunc 262162 U96 polystyrene round bottomed clear plates (www.nuncbrand.com).
as §1
When testing the peptides against N. crassa and F. oxysporum, experiments were carried as described above apart from the incubation temperature was changed to 25° C. for N. crassa and 35° C. for F. oxysporum.
as §2, §3

[1] = Viability of reconstructed cornea-like epithelium (eye irritation model); settings: human, reconstructed cornea-like epithelium (RhCE, EpiOcular™)
Method: (§4) FIG. 4a is a graph of the viability reconstructed cornea-like epithelium (RhCE, EpiOcular™) after incubation with MFIGA001. NC=Negative Control; PC=Positive Control. FIG. 4b is a graph of the viability reconstructed cornea-like epithelium (RhCE, EpiOcular™) after incubation with 10 µM of MFIGA001a and MFIGAF001b. NC=Negative Control; PC=Positive Control; A2=MFIGAF001a; and B1=MFIGAF001b.
(§5) MFIGAF001 was also assessed independently by a CRO (Evotec) in an OECD compliant reconstructed cornea-like epithelial cell model (RhCE, EpiOcular™).

[2] = tested on: reconstructed cornea-like epithelium (RhCE, EpiOcular™); test: as above
Method: as §4, §5

[3] = tested on: C. albicans, F. oxysporum, A. fumigatus, and C. neoformans; test: Live cell imaging, fluorescent labelling of pathogenic fungi; parameters: dose or concentration left out as unconfirmed; settings: 15 min incubation at 37° C. in RPMI
Method: The N. crassa mat A WT used for confocal live-cell imaging was grown on 100% Vogel's agar medium at 25° C. for 3-5 days before the spores were harvested. The A. fumigatus CEA10 strain used for confocal live-cell imaging was grown on 100% Vogel's medium at 37° C. for 4-5 days before the spores were harvested. Before the confocal experiments were performed, N. crassa spores were incubated in eight-well slide culture chambers for 3 h at 25° C. in liquid 10% Vogel's medium and A. fumigatus spores were incubated for 16 h at 25° C. in liquid 10% Vogel's medium in order to allow germination to fully take place for imaging.
Live-cell imaging of germinated fungi spores was performed using a Leica TCS SP8 confocal laser scanning microscope equipped with photo multiplier tubes (PMT), hybrid GaAsP (HyD) detectors and a 63× water immersion objective. A Leica turntable white light laser (WLL, 450-750 nm), argon laser (458 nm, 476 nm, 488 nm and 496 nm) and UV laser (405 nm) were used for fluorescence excitation.
The major pathogenic fungi include C. albicans, F. oxysporum, A. fumigatus, and C. neoformans.

Row | Compound | IC50 Aspergillus fumigatus (Aspergillus fumigatus) | IC50 Fusarium oxysporum (Fusarium oxysporum) | viability at 10 µM [1] | Toxicity, reconstructed cornea-like epithelium (FIG. 4) [2] | Fluorescent labelling of pathogenic fungi [3]
1 | N=C(N)NCCC[C@@H]1NC(=O)CNC(=O)[C@H](CCCCNC(=O)c2cccc3c2C(=O)OC32c3ccc(O)cc3Oc3cc(O)ccc32)NC(=O)[C@H](Cc2c[nH]c3ccccc23)NC(=O)[C@H](Cc2ccccc2)NC(=O)[C@H](Cc2c[nH]c3ccccc23)NC(=O)[C@@H](Cc2ccccc2)NC(=O)[C@H](CCCCN)NC(=O)[C@H](CCCCN)NC1=O [MFIGAF001b, Cyclo(Arg-Lys-Lys-phe-Trp-Phe-Trp-Lys(CF)-Gly)] (cyclo(FWK(X2)GRKK[dF]W)) | 2.1 µg/mL (≈ 1.29 µM) | 2.3 µg/mL (≈ 1.42 µM) | 99.1% | no obvious toxicity | label all major pathogenic fungi that cause fungal keratitis
2 | H-RKKWFW-NH2 [PAF26, NH2-Arg-Lys-Lys-Trp-Phe-Trp-CONH2, reference compound] | 8.0 µg/mL | 7.2 µg/mL |  |  | 
